Legend:
HIV-1 mutant L100I = assay: microbe, parasite or virus in culture; conditions: Human immunodeficiency virus 1, MT4, read-out: EC50 L100I
HIV-1 mutant Y188L = assay: microbe, parasite or virus in culture; conditions: Human immunodeficiency virus 1, MT4, read-out: EC50 Y188L
[1] = Cytotoxicity in uninfected; conditions: human, mock-infected (uninfected) MT-4 cells, CC50, uninfected MT-4 cells, MTT
WT HIV-1 [2] = assay: microbe, parasite or virus in culture; conditions: Human immunodeficiency virus 1, MT4, read-out: WT EC50
WT HIV-1 RT = WT HIV-1 RT (Human immunodeficiency virus type 1 group M subtype B, UniProt P03366); assay: biochemical
HIV-1 mutant E138K = assay: microbe, parasite or virus in culture; conditions: Human immunodeficiency virus 1, MT4, read-out: EC50 E138K
HIV-1 mutant K103N = assay: microbe, parasite or virus in culture; conditions: Human immunodeficiency virus 1, MT4, read-out: EC50 K103N
WT HIV-1 [3] = conditions: Selectivity index CC50/EC50 (WT)
[4] = Liver microsomal stability, human; type: in vitro ADME
MT-4 cells = assay: Cytotoxicity in uninfected; conditions: uninfected MT-4 cells, MTT
mice = assay: Acute toxicity assay and HE staining in healthy mice; type: in vivo
hERG = hERG (Homo sapiens, UniProt Q12809); assay: hERG channel Qpatch assay in CHO-hERG cells; type: cell-based; conditions: at 40 μmol/L
[5] = In vivo pharmacokinetics in Sprague-Dawley rats; conditions: male, rat, plasma
[6] = Liver microsomal stability, monkey; type: in vitro ADME
[7] = Liver microsomal stability, dog; type: in vitro ADME
[8] = MF%>70% excellent, 30-70% good, <30% poor

Sequence of hERG (Q12809 whole entry): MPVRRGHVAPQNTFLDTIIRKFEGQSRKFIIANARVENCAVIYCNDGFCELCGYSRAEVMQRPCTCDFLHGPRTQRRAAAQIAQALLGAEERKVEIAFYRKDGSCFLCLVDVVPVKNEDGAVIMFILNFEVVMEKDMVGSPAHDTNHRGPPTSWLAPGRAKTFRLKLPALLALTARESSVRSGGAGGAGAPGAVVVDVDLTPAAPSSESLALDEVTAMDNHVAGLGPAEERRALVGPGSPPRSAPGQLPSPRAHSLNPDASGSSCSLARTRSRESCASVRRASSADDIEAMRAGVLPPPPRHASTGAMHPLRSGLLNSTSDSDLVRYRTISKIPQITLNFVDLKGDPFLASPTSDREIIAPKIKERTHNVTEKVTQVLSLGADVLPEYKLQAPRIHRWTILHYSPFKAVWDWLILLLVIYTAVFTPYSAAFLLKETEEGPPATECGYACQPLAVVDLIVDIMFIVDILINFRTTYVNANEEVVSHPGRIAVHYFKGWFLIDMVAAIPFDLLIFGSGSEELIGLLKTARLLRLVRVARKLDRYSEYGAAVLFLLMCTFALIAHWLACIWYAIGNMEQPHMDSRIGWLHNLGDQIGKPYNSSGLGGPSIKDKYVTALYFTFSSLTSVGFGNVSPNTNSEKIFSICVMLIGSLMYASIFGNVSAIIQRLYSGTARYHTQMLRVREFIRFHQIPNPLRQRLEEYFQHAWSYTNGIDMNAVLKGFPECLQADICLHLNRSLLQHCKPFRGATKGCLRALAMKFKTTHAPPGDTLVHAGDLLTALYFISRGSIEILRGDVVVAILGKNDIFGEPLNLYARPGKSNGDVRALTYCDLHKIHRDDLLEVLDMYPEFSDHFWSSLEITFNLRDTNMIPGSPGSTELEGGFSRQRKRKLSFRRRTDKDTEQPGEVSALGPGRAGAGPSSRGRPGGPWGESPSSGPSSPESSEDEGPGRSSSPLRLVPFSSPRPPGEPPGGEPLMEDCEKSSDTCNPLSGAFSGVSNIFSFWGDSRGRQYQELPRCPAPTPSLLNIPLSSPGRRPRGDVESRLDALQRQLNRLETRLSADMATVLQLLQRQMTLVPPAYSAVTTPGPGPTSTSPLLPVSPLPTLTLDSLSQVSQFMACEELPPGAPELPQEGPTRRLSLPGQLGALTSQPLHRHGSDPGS

## Cc1cc(-c2ccc(C#N)cc2)cc(C)c1Oc1nc(Nc2ccc(C#N)cc2)ncc1CO [9a, 4′-((2-((4-Cyanophenyl)amino)-5-(hydroxymethyl)pyrimidin-4-yl)oxy)-3′,5′-dimethyl-[1,1′-biphenyl]-4-carbonitrile]
HIV-1 mutant L100I
  EC50: 6.3 ± 0.3 nM
HIV-1 mutant Y188L
  EC50: 33 ± 4 nM
[1]
  CC50 at 5 days: 15600 ± 4600 nM
WT HIV-1 [2]
  EC50: 2.5 ± 0.6 nM
WT HIV-1 RT
  IC50: 35 ± 8 nM
HIV-1 mutant E138K
  EC50: 6.5 ± 0.5 nM
HIV-1 mutant K103N
  EC50: 3.2 ± 0.7 nM
WT HIV-1 [3]
  SI: 6343

## COc1cc(-c2ccncc2)ccc1Oc1nc(Nc2ccc(C#N)cc2)ncc1CO [9i, 4-((5-(Hydroxymethyl)-4-(2-methoxy-4-(pyridin-4-yl)phenoxy)pyrimidin-2-yl)amino)benzonitrile]
HIV-1 mutant L100I
  EC50: 560 ± 137 nM
HIV-1 mutant Y188L
  EC50: 1750 ± 123 nM
[1]
  CC50 at 5 days: 30500 ± 3400 nM
WT HIV-1 [2]
  EC50: 18.2 ± 6.8 nM
HIV-1 mutant E138K
  EC50: 217 ± 18.4 nM
HIV-1 mutant K103N
  EC50: 95.6 ± 17.6 nM
WT HIV-1 [3]
  SI: 1679

## COc1cc(-c2ccc(C#N)cc2)ccc1Oc1nc(Nc2ccc(C#N)cc2)ncc1CO [9c, 4′-((2-((4-Cyanophenyl)amino)-5-(hydroxymethyl)pyrimidin-4-yl)oxy)-3′-methoxy-[1,1′-biphenyl]-4-carbonitrile]
HIV-1 mutant L100I
  EC50: 20.5 ± 1.3 nM
HIV-1 mutant Y188L
  EC50: 137 ± 8.1 nM
[1]
  CC50 at 5 days: 258000 ± 1200 nM
WT HIV-1 [2]
  EC50: 1.7 ± 0.1 nM
WT HIV-1 RT
  IC50: 21 ± 8 nM
HIV-1 mutant E138K
  EC50: 19.4 ± 4.8 nM
HIV-1 mutant K103N
  EC50: 6.5 ± 0.2 nM
WT HIV-1 [3]
  SI: 149,540

## N#Cc1ccc(Nc2ncc(CO)c(Oc3c(F)cc(-c4ccc(C#N)cc4)cc3F)n2)cc1 [9g, 4′-((2-((4-Cyanophenyl)amino)-5-(hydroxymethyl)pyrimidin-4-yl)oxy)-3′,5′-difluoro-[1,1′-biphenyl]-4-carbonitrile]
HIV-1 mutant L100I
  EC50: 8.2 ± 1.4 nM
[4]; human, human liver microsomes
  half-life: 45.9 h
[4]; human, human liver microsomes, Clint(hep)
  CLint scaled: 56.2 mL/min/kg
[4]; human, human liver microsomes, Clint(mic), human liver microsome
  CLint scaled: 0.763 mL/min/kg
[4]; human, MF%>70% excellent, 30-70% good, <30% poor
  MF: 96.3%
[4]; relative to 5 (t1/2 = 96 min)
  t1/2 in human liver microsomes, fold longer than that of 5: about 29 fold
HIV-1 mutant Y188L
  EC50: 161 ± 27.6 nM
MT-4 cells
  CC50: 225000 ± 3900 nM
[1]
  CC50 at 5 days: 264000 nM
WT HIV-1 [2]
  EC50: 0.9 ± 0.1 nM
mice; mice (male and female), 2 g/kg, within two weeks
  body weight: increased gradually
mice; mice, 2 g/kg
  behavioral abnormalities: No behavioral abnormalities
mice; mice, 2 g/kg, six organs
  pathological injury (HE staining): no obvious pathological injury
mice; mice, single oral administration of 2 g/kg
  tolerability: well tolerated
WT HIV-1 RT
  IC50: 21 ± 1 nM
HIV-1 mutant E138K
  EC50: 3.5 ± 0.8 nM
hERG
  inhibition of hERG: no significant inhibition
HIV-1 mutant K103N
  EC50: 1.9 ± 0.2 nM
[5]; iv, 1 mg/kg
  Cmax: 296 ± 79.4 ng/mL
  Tmax: 0.08 h
  half-life: 1.5 ± 0.14 h
[5]; iv, 1 mg/kg, AUC0‒t, 1.0 mg/kg i.v.
  AUC: 244 ± 24.5 ng·h/mL
[5]; iv, 1 mg/kg, AUC0‒∞, 1.0 mg/kg i.v.
  AUC: 247 ± 25.8 ng·h/mL
[5]; iv, 1 mg/kg, MRT0‒t, 1.0 mg/kg i.v.
  MRT: 1.19 ± 0.16 h
[5]; iv, 1 mg/kg, MRT0‒∞, 1.0 mg/kg i.v.
  MRT: 1.33 ± 0.21 h
[5]; po, 10 mg/kg
  Cmax: 39.3 ± 8.04 ng/mL
  Tmax: 0.83 ± 0.29 h
  bioavailability: 8.01 ± 0.02%
  half-life: 5.21 ± 3.02 h
[5]; po, 10 mg/kg, AUC0‒t, 10.0 mg/kg p.o.
  AUC: 159 ± 48.7 ng·h/mL
[5]; po, 10 mg/kg, AUC0‒∞, 10.0 mg/kg p.o.
  AUC: 198 ± 38.6 ng·h/mL
[5]; po, 10 mg/kg, MRT0‒t, 10.0 mg/kg p.o.
  MRT: 3.91 ± 2.38 h
[5]; po, 10 mg/kg, MRT0‒∞, 10.0 mg/kg p.o.
  MRT: 6.8 ± 2.79 h
WT HIV-1 [3]
  SI: 256,438
[6]; [8]
  MF: 28.1%
[6]; monkey liver microsomes
  half-life: 0.435 h
[6]; monkey liver microsomes, Clint(hep)
  CLint scaled: 122 mL/min/kg
[6]; monkey liver microsomes, Clint(mic), monkey liver microsome
  CLint scaled: 80.5 mL/min/kg
[7]; [8]
  MF: 42.2%
[7]; dog liver microsomes
  half-life: 1.19 h
[7]; dog liver microsomes, Clint(hep)
  CLint scaled: 179 mL/min/kg
[7]; dog liver microsomes, Clint(mic), dog liver microsome
  CLint scaled: 29.5 mL/min/kg

## Cc1cc(-c2ccncc2)cc(C)c1Oc1nc(Nc2ccc(C#N)cc2)ncc1CO [9h, 4-((4-(2,6-Dimethyl-4-(pyridin-4-yl)phenoxy)-5-(hydroxymethyl)pyrimidin-2-yl)amino)benzonitrile]
HIV-1 mutant L100I
  EC50: 323 ± 44.5 nM
HIV-1 mutant Y188L
  EC50: 1580 ± 103 nM
[1]
  CC50 at 5 days: 221000 ± 12500 nM
WT HIV-1 [2]
  EC50: 7.1 ± 3 nM
HIV-1 mutant E138K
  EC50: 38.9 ± 4.1 nM
HIV-1 mutant K103N
  EC50: 20.1 ± 3 nM
WT HIV-1 [3]
  SI: 30,868

## N#Cc1ccc(Nc2ncc(CO)c(Oc3ccc(-c4cccnc4)cc3F)n2)cc1 [9m, 4-((4-(2-Fluoro-4-(pyridin-3-yl)phenoxy)-5-(hydroxymethyl)pyrimidin-2-yl)amino)benzonitrile]
HIV-1 mutant L100I
  EC50: 13700 ± 1140 nM
HIV-1 mutant Y188L
  EC50: > 178000 nM
[1]
  CC50 at 5 days: 178000 ± 32900 nM
WT HIV-1 [2]
  EC50: 306 ± 43.6 nM
HIV-1 mutant E138K
  EC50: 2490 ± 388 nM
HIV-1 mutant K103N
  EC50: 1690 ± 165 nM
WT HIV-1 [3]
  SI: 583

## N#Cc1ccc(Nc2ncc(CO)c(Oc3c(F)cc(-c4ccncc4)cc3F)n2)cc1 [9l, 4-((4-(2,6-Difluoro-4-(pyridin-4-yl)phenoxy)-5-(hydroxymethyl)pyrimidin-2-yl)amino)benzonitrile]
HIV-1 mutant L100I
  EC50: 22.2 ± 6.2 nM
HIV-1 mutant Y188L
  EC50: 720 ± 272 nM
[1]
  CC50 at 5 days: 128000 ± 5500 nM
WT HIV-1 [2]
  EC50: 0.9 nM
HIV-1 mutant E138K
  EC50: 13.6 ± 1.2 nM
HIV-1 mutant K103N
  EC50: 3 ± 0.3 nM
WT HIV-1 [3]
  SI: 138,219

## N#Cc1ccc(Nc2ncc(CO)c(Oc3ccc(-c4ccc(C#N)cc4)cc3F)n2)cc1 [9d, 4′-((2-((4-Cyanophenyl)amino)-5-(hydroxymethyl)pyrimidin-4-yl)oxy)-3′-fluoro-[1,1′-biphenyl]-4-carbonitrile]
HIV-1 mutant L100I
  EC50: 117 ± 17.7 nM
HIV-1 mutant Y188L
  EC50: 41800 nM
[1]
  CC50 at 5 days: > 45800 nM
WT HIV-1 [2]
  EC50: 3.9 ± 0.4 nM
WT HIV-1 RT
  IC50: 33 ± 2 nM
HIV-1 mutant E138K
  EC50: 34.9 ± 3.2 nM
HIV-1 mutant K103N
  EC50: 14.4 ± 1.5 nM
WT HIV-1 [3]
  SI: >11,594

## N#Cc1ccc(Nc2ncc(CO)c(Oc3ccc(-c4ccc(C#N)cc4)cc3C(F)(F)F)n2)cc1 [9f, 4′-((2-((4-Cyanophenyl)amino)-5-(hydroxymethyl)pyrimidin-4-yl)oxy)-3′-(trifluoromethyl)-[1,1′-biphenyl]-4-carbonitrile]
HIV-1 mutant L100I
  EC50: 11.1 ± 0.5 nM
HIV-1 mutant Y188L
  EC50: 85.3 ± 8.4 nM
[1]
  CC50 at 5 days: 14600 ± 3100 nM
WT HIV-1 [2]
  EC50: 1.8 ± 0.1 nM
WT HIV-1 RT
  IC50: 21 ± 6 nM
HIV-1 mutant E138K
  EC50: 7.9 ± 0.2 nM
HIV-1 mutant K103N
  EC50: 3.2 ± 0.6 nM
WT HIV-1 [3]
  SI: 7891

Source: article PMC10372819 (Acta Pharmaceutica Sinica. B, 2023)
